In publication PMC8493129, “Design and Synthesis of New Quinoxaline Derivatives as Potential Histone Deacetylase Inhibitors Targeting Hepatocellular Carcinoma: In Silico, In Vitro, and SAR Studies” (Frontiers in Chemistry, 2021):
Values joined by “and” are separate entries in the source; they are usually repeats but may differ in a detail not shown here. Identical values can stand only once.

How the values were obtained:
[1] = test system: HuH-7 liver cancer cell line; test: Anti-proliferative activity (MTT / SRB assay), HuH-7; type: cell-based, human; settings: for IC50: Homo sapiens, mean of three separate experiments
Description: (§1) The new quinoxaline derivatives of the five series: 6, 7, 8, 9, and 10 were evaluated for their potential anti-proliferative activity against two liver cancer cell lines (HepG-2 and HuH-7) obtained from the American Type Culture Collection.

[2] = test system: HepG-2 liver cancer cell line; test: Anti-proliferative activity (MTT / SRB assay), HepG-2; type: cell-based, human; settings: for IC50: Homo sapiens, HepG2, mean of three separate experiments
Description: as §1

Bcl-2 = test: Anti-apoptotic marker level (Bcl-2) in HepG-2 cells; type: cell-based, human; settings: control 5.048 pg/ml
Description: (§2) The method was performed in detail as previously explained ([Eliaa et al., 2020]).

HDAC1 = HDAC1 (Homo sapiens, UniProt Q13547); test: Histone deacetylase inhibition, homogeneous fluorescence release assay
Chain of HDAC1 (Q13547 whole entry): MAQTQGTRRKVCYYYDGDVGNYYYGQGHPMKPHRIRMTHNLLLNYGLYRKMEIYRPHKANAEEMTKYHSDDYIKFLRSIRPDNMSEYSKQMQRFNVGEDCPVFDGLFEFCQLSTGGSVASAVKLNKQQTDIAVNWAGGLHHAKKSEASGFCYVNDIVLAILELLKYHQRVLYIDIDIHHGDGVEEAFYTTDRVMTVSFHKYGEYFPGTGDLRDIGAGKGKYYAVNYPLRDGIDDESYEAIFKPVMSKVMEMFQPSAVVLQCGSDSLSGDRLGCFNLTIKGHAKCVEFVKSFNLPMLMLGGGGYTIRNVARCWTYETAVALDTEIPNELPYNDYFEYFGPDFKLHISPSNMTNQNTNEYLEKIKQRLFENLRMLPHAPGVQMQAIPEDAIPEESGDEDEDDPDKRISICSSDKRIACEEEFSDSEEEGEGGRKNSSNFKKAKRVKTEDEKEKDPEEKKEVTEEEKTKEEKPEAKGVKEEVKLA

HDAC6 = target: T1, HDAC6 (Homo sapiens, UniProt Q9UBN7); test: as above
T1 sequence (Q9UBN7 1-1215): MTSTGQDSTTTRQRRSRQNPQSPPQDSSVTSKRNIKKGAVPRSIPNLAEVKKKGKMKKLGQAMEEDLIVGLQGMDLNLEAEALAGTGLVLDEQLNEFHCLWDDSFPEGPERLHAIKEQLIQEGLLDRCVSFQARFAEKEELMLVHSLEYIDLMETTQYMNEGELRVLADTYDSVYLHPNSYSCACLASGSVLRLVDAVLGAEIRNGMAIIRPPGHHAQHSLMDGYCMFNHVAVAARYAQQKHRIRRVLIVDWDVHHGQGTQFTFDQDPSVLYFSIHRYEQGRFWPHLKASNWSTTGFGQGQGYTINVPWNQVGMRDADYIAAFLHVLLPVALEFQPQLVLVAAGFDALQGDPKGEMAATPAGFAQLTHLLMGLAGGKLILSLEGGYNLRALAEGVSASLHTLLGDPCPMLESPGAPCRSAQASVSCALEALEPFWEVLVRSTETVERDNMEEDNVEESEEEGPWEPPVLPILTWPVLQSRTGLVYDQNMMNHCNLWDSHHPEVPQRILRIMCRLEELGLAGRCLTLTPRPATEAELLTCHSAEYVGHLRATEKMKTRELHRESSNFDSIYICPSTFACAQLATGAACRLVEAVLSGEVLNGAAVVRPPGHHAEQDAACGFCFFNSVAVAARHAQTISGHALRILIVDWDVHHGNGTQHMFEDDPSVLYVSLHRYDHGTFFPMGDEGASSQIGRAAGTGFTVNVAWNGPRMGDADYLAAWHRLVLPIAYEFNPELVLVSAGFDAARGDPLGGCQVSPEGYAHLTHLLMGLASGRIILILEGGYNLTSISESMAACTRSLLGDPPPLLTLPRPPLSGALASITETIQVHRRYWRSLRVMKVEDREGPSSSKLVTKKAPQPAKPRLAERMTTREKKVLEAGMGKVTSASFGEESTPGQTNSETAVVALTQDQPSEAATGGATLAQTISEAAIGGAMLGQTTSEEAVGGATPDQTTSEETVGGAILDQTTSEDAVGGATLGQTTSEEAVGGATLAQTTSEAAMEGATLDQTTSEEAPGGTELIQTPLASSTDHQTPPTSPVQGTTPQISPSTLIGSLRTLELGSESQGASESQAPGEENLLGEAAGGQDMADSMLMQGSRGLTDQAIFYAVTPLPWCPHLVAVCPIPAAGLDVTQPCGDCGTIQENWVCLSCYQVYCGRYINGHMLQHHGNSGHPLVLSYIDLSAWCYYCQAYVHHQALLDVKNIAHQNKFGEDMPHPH

HDAC4 = HDAC4 (Homo sapiens, UniProt P56524); test: as above
Chain of HDAC4 (P56524 whole entry): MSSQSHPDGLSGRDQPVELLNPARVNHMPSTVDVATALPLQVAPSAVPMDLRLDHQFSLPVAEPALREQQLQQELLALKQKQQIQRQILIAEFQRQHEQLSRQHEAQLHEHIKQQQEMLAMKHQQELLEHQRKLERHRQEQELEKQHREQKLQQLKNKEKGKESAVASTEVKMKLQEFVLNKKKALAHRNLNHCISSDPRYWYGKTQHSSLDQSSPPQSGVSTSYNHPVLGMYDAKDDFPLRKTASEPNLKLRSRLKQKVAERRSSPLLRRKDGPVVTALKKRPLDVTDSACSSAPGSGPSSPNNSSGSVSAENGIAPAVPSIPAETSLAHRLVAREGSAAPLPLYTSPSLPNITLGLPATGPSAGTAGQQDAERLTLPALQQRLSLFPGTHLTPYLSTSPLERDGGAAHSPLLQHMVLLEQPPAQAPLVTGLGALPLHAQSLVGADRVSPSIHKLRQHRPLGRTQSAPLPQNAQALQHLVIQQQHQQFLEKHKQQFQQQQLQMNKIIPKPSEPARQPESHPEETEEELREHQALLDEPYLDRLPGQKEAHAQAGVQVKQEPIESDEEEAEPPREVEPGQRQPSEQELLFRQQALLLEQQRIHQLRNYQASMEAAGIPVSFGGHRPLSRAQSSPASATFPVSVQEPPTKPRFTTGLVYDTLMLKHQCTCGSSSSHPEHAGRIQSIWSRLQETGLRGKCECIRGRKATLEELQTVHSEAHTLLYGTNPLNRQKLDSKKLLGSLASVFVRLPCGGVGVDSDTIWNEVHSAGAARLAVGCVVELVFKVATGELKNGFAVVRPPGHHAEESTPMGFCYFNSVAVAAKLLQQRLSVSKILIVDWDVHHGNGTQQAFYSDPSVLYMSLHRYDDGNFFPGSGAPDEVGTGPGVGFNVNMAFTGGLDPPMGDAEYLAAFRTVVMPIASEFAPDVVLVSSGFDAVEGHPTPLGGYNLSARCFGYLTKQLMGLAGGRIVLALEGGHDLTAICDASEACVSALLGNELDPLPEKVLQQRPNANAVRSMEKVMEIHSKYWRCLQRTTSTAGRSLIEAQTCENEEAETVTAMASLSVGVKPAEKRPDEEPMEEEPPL

[3] = test system: HepG-2 and HuH-7 liver cancer cell lines; test: Anti-proliferative activity, statements covering both cell lines; type: cell-based, human; settings: class by IC50 on HepG-2 and HuH-7
Description: as §1

Bax = test: Apoptotic marker level (Bax) in HepG-2 cells; type: cell-based, human; settings: control 24.37 pg/ml
Description: as §2

HepG-2 cells [4] = test: Annexin V-FITC apoptosis assay; type: cell-based, human; settings: HepG-2, 1.53 µM
Description: It is well-known that cell death may be due to programmed apoptosis or uncontrolled necrosis. Annexin V-based flow cytometry assay as a helpful strategy to determine the exact cause of death was carried out. […] This confirms that the cytotoxic activity of compound 6 c is due to programmed apoptosis, and not to nonspecific necrosis.
The previous compound was analyzed by FACS as we previously described ([Al-Rashood et al., 2020]; [Eliaa et al., 2020]; [Eldehna et al., 2021]).

HepG-2 cells [5] = test: Cell cycle analysis by flow cytometry; type: cell-based, human
Description: The most compound 6 c incorporating 4-Cl benzylidene side chain was further evaluated through cell cycle analysis in HepG-2 cell line. Such a test was carried out to detect the exact phase at which cell cycle arrest takes place.

| Structure (SMILES) | IC50 [1] [µM] | IC50 ([2]; HepG-2) [µM] | Bcl-2 (Bcl-2) | IC50 (HDAC1) [nM] | IC50 (HDAC6) [nM] | IC50 (HDAC4) [nM] | cytotoxic (anti-proliferative) activity class [3] | Bax (Bax) [pg/mL] | other results |
| --- | --- | --- | --- | --- | --- | --- | --- | --- | --- |
| CC(=NNc1nc2ccccc2nc1Cl)c1ccccc1O [Compound 7 b, 2-(1-(2-(3-Chloroquinoxalin-2-yl)hydrazono)ethyl)phenol] | 6.19 | 4.03 | 2.371 pg/mL | 2670 | 5240 | 2510 | very strong (1–10 (very strong)) | 217.9 | – |
| Oc1ccc2ccccc2c1C=NNc1nc2ccccc2nc1Cl [Compound 8, 1-((2-(3-Chloroquinoxalin-2-yl)hydrazono)methyl)naphthalen-2-ol] | 6.14 | 3.88 | 1.839 pg/mL | 1720 | 4370 | 2090 | very strong (1–10 (very strong)) | 233.6 | fold increase in activity versus corresponding member 11, HuH-7 ([1]; ratio of IC50 values): 3.30 fold; fold increase in activity versus corresponding member 11, HepG-2 ([2]; ratio of IC50 values, HepG-2): 4.76 fold; fold more active than compound 9 ([2]; ratio of IC50 values, stated for the two cell lines, figure fits HepG-2): 2.98 fold |
| Clc1ccc(C=NNc2nc3ccccc3nc2Cl)cc1 [Compound 6 c, 2-Chloro-3-(2-(4-chlorobenzylidene)hydrazinyl)quinoxaline] | 3.06 | 1.53 | 1.27 pg/mL and 1.278 pg/mL | 1760 | 3460 | 1390 | – | 274.3 | increase in apoptosis percentage compared to the control, early phase (HepG-2 cells [4]): 9.98 fold; increase in apoptosis percentage compared to the control, late phase (HepG-2 cells [4]): 10.81 fold; AnxV-FITC apoptotic cells percentage, late apoptosis (HepG-2 cells [4]; control 0.53%): 5.73%; AnxV-FITC apoptotic cells percentage, early apoptosis (HepG-2 cells [4]; control 0.62%): 6.19%; decline in the cell population at G0/G1 phase compared to control (HepG-2 cells [5]; HepG-2, 1.53 µM): 1.23 fold; decline in the cell population at S phase compared to control (HepG-2 cells [5]; HepG-2, 1.53 µM): 1.18 fold; increase in the population of cells at the G2/M phase compared to control (HepG-2 cells [5]; HepG-2, 1.53 µM): 1.76 fold; %G2/M (HepG-2 cells [5]; HepG-2 cells treated at 1.53 µM, control 18.67%): 32.93%; %S (HepG-2 cells [5]; HepG-2 cells treated at 1.53 µM, control 35.93%): 30.32%; %G0-G1 (HepG-2 cells [5]; HepG-2 cells treated at 1.53 µM, control 45.40%): 36.75% |
| COc1nc2ccccc2nc1N/N=C1/C(=O)Nc2ccccc21 [Compound 12] | 3.08 | 1.99 | 1.571 pg/mL | 2010 | 3620 | 1720 | very strong (1–10 (very strong)) | 257.9 | fold increase in activity versus corresponding member 9, HuH-7 ([1]; ratio of IC50 values): 5.33 fold; fold increase in activity versus corresponding member 9, HepG-2 ([2]; ratio of IC50 values, HepG-2): 5.81 fold |
